Experimental data published in US20220153739A1, “OPIOID RECEPTOR MODULATOR AND USE THEREOF” (Arriba BioPharma, Inc., priority 2020, published 2022).

Experiments:
male CD-1 mice [1] = assay: Stress induced fecal output; assay type: in vivo; details: for 0 h (Stools), mean / 0-1 h (Stools), mean / 1-2 h (Stools), mean / 2-4 h (Stools), mean: 50 mg/kg PO, stress induced
Text: The animals used in the studies are male CD-1 mice, average weight about 25 to 35 g, with an average of 5 mice per dose group. The mice were generally housed in colony housing where they are housed 4 per cage in polycarbonate 20 cages with access to food and water ad lib. On the day of the experiment they are transported to the procedure room where they were individually housed in metabolism cage (CAT003) after intragastric administration of Compound D at 50mpk, a reference compound of Formula II (“ORP-101”), and the vehicle alone. Compound D (“ALB-215896”) and the reference compound were each weighed and dissolved in 2.58 ml of de-ion water, mixed by vortex, to prepare the compound D and reference compound solutions at 5 mg/mL.
During the test, the animals were fasted with free access to water. The wire mesh bottomed tall cage creates a novel environment which induces stress in mice. Stool collection and the number of pellets excreted were determined 0, 1, 2, 4 hours after administration. […] Details data of this study is provided below in Table 1.

[2] = Bidirectional permeability in Caco-2 cells; assay type: in vitro ADME; details: human, 120 minutes; for Papp B→A at 120 min, 2 μM: Caco-2, Caco-2, B to A direction, read-out: mean apparent permeability coefficient (Papp), B to A
Method: (§1) The objective of this study was to determine the bidirectional permeability and efflux ratio of compound D in the Caco-2 cells. Caco-2 cells (purchased from ATCC) at passage number 49 were seeded on 96-well transport inserts and cultured for 22 days before being used for the transport experiment. Compound D was dosed bi-directionally at 2 μM. Samples were taken at 0 and 120 minutes after incubation and analyzed by LC-MS/MS. […] Therefore, both the efflux ratios could not be calculated.

male CD-1 mice [3] = assay: Post-inflammatory altered GI transit time (mustard oil), fecal output; assay type: in vivo; details: for 0 h (Stools), mean / 1 h (Stools), mean / 2 h (Stools), mean / 4 h (Stools), mean: 50 mg/kg PO, post-inflammatory
Method: This test was designed to measure the effect of test substance on gastrointestinal hypersensitivity that occurs following inflammation. Post-inflammatory altered GI transit was induced in male CD-1 mice by injecting freshly opened oil of mustard (95% pure allyl isothiocyanate, 0.5% in ethanol). The effect of stress on GI is motility is evaluated 4 weeks later, when although there is no longer inflammation, the GI tract remains in a hypersensitive state. Effect of test substance was measured after oral administration (intragastric gavage) and subjecting the animals to environmental stress by housing them in metabolism cage. During the test, the animals were allowed access to water ad lib. The wire mesh bottomed tall cage creates a novel environment, which induces stress in mice. The number of pellets excreted was determined at 1 h, 2 h and 4 h after administration. Compound D (ALB-215896) and ORP-101 were each weighed and dissolved in 2.58 ml of de-ion water, mixed by vortex, to prepare the compound D and reference compound solutions at 5 mg/mL.

[4] = Metabolic stability in SD rat liver microsomes; assay type: in vitro ADME
Method: (§2) The metabolic stability of Compound D in SD rat and human liver microsomes were measured One (1) μM of Compound D was incubated with SD rat or human liver microsomes with NADPH in a water bath or tecan at 37° C. for up to 60 min. All samples were monitored using LC-MS/MS.

[5] = Metabolic stability in human liver microsomes; assay type: in vitro ADME
Method: as §2

Caco-2 cells = assay: Bidirectional permeability in Caco-2 cells; assay type: in vitro ADME
Method: as §1

[6] = 1 μM, NADPH, 37° C., up to 60 min, read-out: half-life (T1/2)
[7] = read-out: intrinsic clearance (CLint(liver))

SMILES	0 h (Stools), mean (male CD-1 mice [1]) [Stools]	0-1 h (Stools), mean (male CD-1 mice [1]) [Stools]	1-2 h (Stools), mean (male CD-1 mice [1]) [Stools]	2-4 h (Stools), mean (male CD-1 mice [1]) [Stools]	Papp B→A at 120 min, 2 μM [2] [×10⁻⁶ cm/s]	0 h (Stools), mean (male CD-1 mice [3]) [Stools]	1 h (Stools), mean (male CD-1 mice [3]; 1 h) [Stools]	2 h (Stools), mean (male CD-1 mice [3]) [Stools]	4 h (Stools), mean (male CD-1 mice [3]) [Stools]	further results
CO[C@]12CC[C@@]3(C[C@@H]1[C@](C)(O)C(C)(C)C)[C@H]1Cc4ccc(OCCOc5ccc6c7c5O[C@H]5C78CCN(CC7CC7)[C@H](C6)[C@]86CC[C@]5(OC)[C@@H]([C@](C)(O)C(C)(C)C)C6)c5c4[C@@]3(CCN1CC1CC1)[C@@H]2O5 [ORP-101, reference compound]	0	3.8	3	2.8	< 0.13	0	1.75	2.00	3.75	Papp A→B at 120 min ([2]; Caco-2, apical to basolateral, read-out: mean apparent permeability coefficient (Papp), A to B): < 0.14 ×10⁻⁶ cm/s
COc1ccc2c3c1O[C@@H]1[C@@]4(OCCOc5ccc6c7c5OC5C8(OC)CC[C@@]9(CC8[C@](C)(O)C(C)(C)C)[C@@H](C6)N(CC6CC6)CCC759)CC[C@@]5(C[C@@H]4[C@](C)(O)C(C)(C)C)[C@@H](C2)N(CC2CC2)CC[C@]315 (stereo in doubt) [Compound D, 2-((4R,4aS,6R,7R,7aR,12bS)-9-(2-(((4R,4aS,6R,7R,7aS,12bS)-9-(Methyloxy)-3-(cyclopropylmethyl)-6-(2-hydroxy-3,3-dimethylbutan-2-yl)-1,2,3,4,5,6 hexahydro-4a,7-ethano-4,12-methanobenzofuro[3,2-e]isoquinolin-7(7aH)yl)oxy)ethoxy)-3-(cyclopropylmethyl)-7-methoxy-1,2,3,4,5,6,7,7a-octahydro-4a,7ethano-4,12-methanobenzofuro[3,2-e]isoquinolin-6-yl)-3,3-dimethylbutan-2-ol]	0	2.4	1.4	2	< 0.4	0.00	1.49	1.59	2.77	metabolic stability in words [4]: moderately metabolized; half-life at 1 μM [4, 6]: 1.46 h; CLint scaled at 1 μM [4, 7]: 28.5 mL/min/kg; fecal output versus vehicle and reference compound, in words (male CD-1 mice [1]; oral 50mpk, 1 h, 2 h and 4 h time points): significantly reduced the fecal output; metabolic stability in words [5]: stably metabolized; half-life at 1 μM [5, 6]: 1.37 h; CLint scaled at 1 μM [5, 7]: 15.2 mL/min/kg; mean apparent permeability coefficient (Papp), B to A (Caco-2 cells; Caco-2, B to A direction, 120 minutes): < 0.5 ×10⁻⁶ cm/s; substrate of transporters (Caco-2 cells; Caco-2, from B to A Papp): poor and no substrate of transporters; permeability classification (Caco-2 cells; across the Caco-2 cell monolayer): low permeability; Papp A→B at 120 min, 2 μM ([2]; Caco-2, apical to basolateral, 2 μM, read-out: mean apparent permeability coefficient (Papp), A to B): < 0.48 ×10⁻⁶ cm/s; gastrointestinal motility measured by fecal output, in words (male CD-1 mice [3]; 50mpk, 1 h, 2 h, and 4 h time points, post-inflammatory model): significantly decreased gastrointestinal motility
